# Source: patent US8071353B2, “Genetic remodeling in Bifidobacterium” (Nestec S.A., priority 2007, dated 2011)
# Tests used:
# [1] = test system: B. animalis subsp. lactis wild-type strain NCC 2818; test: E-TEST (AB BIODISK) tetracycline MIC determination, wild-type strain; assay type: cell-based, Bifidobacterium animalis subsp. lactis; conditions: Bifidobacterium animalis, strain NCC 2818 (wild-type, operable tetW)
# From the text: (§1) In certain embodiments, the wild-type cell is resistant to a higher concentration of the antibiotic than the cell of the invention, i.e. the cell with the deleted gene. Sensitivity of a microbial cell to a particular antibiotic may be measured in any of a variety of manners. One convenient means for measuring antibiotic sensitivity to use disk diffusion assays, for example the E-test (commercially produced by AB BIODISK). The E-test system uses a predefined gradient of antibiotic concentrations on a plastic strip and can be used to determine the exact Minimum Inhibitory Concentration (MIC) of an antibiotic for a particular organism.
# (§2) In certain embodiments, the wild-type cell is resistant to a higher concentration of the antibiotic than the cell that results from the methods provided. Disk diffusion assays and related sensitivity tests such as the E-test (AB BIODISK) are preferred ways of measuring the sensitivity of a cell to an antibiotic. The Minimum Inhibitory Concentration (MIC), however determined, of an antibiotic for a particular organism is a convenient way to compare relative sensitivities.
# (§3) A commercial E-TEST (AB BIODISK) was used to determine the MIC for tetracycline of each strain.
# [2] = test system: B. animalis subsp. lactis strain NCC 9034 (tetW deleted); test: E-TEST (AB BIODISK) tetracycline MIC determination, tetW deletion strain; assay type: cell-based, Bifidobacterium animalis subsp. lactis
# From the text: as §1, §2, §3
# [3] = test system: Bifidobacterium animalis subsp. lactis strain NCC 362 (wild-type); test: E-TEST tetracycline MIC determination, FIG. 3 legend wild-type strain; assay type: cell-based; conditions: FIG. 3 left panel, read-out: Resistance to tetracycline (MIC)
# From the text: as §1, §3
smiles,measurement,setting,value
CN(C)[C@@H]1C(O)=C(C(N)=O)C(=O)[C@@]2(O)C(O)=C3C(=O)c4c(O)cccc4[C@@](C)(O)[C@H]3C[C@@H]12 [tetracycline],MIC,[1],16 µg/mL
same,MIC,"[2]; Bifidobacterium animalis, read-out: MIC for tetracycline",~0.3 µg/mL
same,times more sensitive to tetracycline than parent wild-type strain NCC 2818,"[2]; NCC 9034 versus NCC 2818, ratio of E-TEST MICs",about 50 times
same,MIC,[3],~16 µg/mL
